Assay results: ChEMBL document CHEMBL4118198, “Synthesis and antiviral evaluation of novel peptidomimetics as norovirus protease inhibitors” (Bioorg Med Chem Lett, 2018)
pEC50, pIC50: −log10 of the molar value.

Legend:
[1] = target: T1, Protease (Norovirus Hu/GII.4-2002/WeertE022/2002/NL) (UniProt G1FEK8); test: (§1) Inhibition of Norovirus prototypic GII.4 3CL protease using HiLyte Fluor 488-labelled DFELQGPK as substrate incubated for 90 mins measured every mins for 20 mins by FRET assay; details: Norovirus GII.4
T1 sequence (whole entry): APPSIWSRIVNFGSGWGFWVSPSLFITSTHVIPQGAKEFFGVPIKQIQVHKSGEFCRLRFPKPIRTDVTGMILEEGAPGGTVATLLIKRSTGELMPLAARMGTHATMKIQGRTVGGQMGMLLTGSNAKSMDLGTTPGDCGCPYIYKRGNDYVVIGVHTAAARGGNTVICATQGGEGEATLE

[2] = target: T2, Protease (Norovirus Hu/GII.4-2002/WeertE022/2002/NL, UniProt G1FEK8); test: as §1; parameters: species or system Norovirus GII.4
T2 sequence (G1FEK8 whole entry): T1 sequence (whole entry)

[3] = target: Nonstructural polyprotein (Norovirus Hu/GI/10360/2010/VNM, UniProt I1U3K2); test: (§2) Inhibition of Norovirus prototypic GI.1 3CL protease using HiLyte Fluor 488-labelled DFELQGPK as substrate incubated for 90 mins measured every mins for 20 mins by FRET assay; parameters: species or system Norovirus GI.1
Sequence of Nonstructural polyprotein (I1U3K2 whole entry): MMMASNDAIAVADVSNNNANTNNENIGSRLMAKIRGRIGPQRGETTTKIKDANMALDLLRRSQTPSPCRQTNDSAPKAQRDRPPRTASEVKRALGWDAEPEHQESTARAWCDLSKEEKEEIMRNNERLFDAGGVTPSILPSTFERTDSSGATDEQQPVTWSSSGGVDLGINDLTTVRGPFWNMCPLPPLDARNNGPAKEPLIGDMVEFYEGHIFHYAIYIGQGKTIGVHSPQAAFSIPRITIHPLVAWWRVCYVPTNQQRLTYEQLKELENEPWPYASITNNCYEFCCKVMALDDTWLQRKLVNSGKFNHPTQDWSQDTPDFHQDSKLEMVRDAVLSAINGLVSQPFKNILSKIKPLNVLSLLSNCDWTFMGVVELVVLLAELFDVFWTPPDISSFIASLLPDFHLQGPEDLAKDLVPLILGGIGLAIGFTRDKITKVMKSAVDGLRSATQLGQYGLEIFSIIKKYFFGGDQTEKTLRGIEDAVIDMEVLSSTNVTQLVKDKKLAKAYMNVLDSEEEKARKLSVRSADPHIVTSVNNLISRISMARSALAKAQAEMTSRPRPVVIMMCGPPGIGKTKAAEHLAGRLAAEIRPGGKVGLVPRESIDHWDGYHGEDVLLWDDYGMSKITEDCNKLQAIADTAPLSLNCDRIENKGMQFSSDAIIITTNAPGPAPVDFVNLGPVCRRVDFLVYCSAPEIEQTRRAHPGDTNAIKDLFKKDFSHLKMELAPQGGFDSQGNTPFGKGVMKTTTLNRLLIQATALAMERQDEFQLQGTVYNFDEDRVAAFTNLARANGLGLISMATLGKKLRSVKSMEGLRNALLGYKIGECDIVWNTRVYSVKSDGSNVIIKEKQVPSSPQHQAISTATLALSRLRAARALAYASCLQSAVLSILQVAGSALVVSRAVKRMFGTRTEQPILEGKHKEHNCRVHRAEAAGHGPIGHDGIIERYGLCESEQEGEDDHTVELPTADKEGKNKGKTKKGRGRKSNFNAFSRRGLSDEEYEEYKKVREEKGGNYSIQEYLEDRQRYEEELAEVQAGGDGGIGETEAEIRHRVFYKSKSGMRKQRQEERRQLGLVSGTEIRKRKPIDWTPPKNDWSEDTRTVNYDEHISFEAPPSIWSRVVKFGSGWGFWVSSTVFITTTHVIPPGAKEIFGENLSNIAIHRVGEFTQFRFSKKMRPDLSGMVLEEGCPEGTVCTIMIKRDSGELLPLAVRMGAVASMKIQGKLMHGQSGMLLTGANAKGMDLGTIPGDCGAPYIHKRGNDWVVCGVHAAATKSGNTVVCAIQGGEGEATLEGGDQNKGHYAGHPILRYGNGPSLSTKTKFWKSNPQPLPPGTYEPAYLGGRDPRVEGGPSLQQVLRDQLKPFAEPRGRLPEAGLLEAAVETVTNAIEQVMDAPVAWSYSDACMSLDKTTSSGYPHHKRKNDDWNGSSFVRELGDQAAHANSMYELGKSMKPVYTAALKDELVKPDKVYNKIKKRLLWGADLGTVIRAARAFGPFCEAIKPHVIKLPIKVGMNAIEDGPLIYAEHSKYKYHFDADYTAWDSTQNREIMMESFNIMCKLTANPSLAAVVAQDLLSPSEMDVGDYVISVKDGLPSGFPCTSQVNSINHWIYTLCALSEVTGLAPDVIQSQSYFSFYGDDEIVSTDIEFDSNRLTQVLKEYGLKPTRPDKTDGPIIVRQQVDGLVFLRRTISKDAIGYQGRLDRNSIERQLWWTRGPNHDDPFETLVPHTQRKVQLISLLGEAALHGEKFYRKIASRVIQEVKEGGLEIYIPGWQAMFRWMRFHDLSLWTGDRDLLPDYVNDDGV

[4] = system: Norovirus; test: Antiviral activity against Norovirus prototypic GI.1 infected in human HG23 cells assessed as inhibition of viral RNA replication after 4 days by RT-qPCR method; assay type: functional, organism-based, Norovirus GI.1; details: for EC90 / pEC50: Norovirus, HG23, 96 h; for pEC50: read-out: EC50
[5] = system: PBMC; test: Cytotoxicity against human PBMC assessed as reduction in cell viability after 6 days by trypan blue exclusion assay; assay type: cell-based; details: 144 h
[6] = system: CCRF-CEM; test: Cytotoxicity against human CEM cells assessed as reduction in cell viability after 6 days by trypan blue exclusion assay; assay type: cell-based; details: 144 h
[7] = system: Vero; test: Cytotoxicity against African green monkey Vero cells assessed as reduction in cell viability after 3 days by hemocytometer; assay type: cell-based; details: chlorocebus sabaeus, 72 h
[8] = system: Huh-7; test: Cytotoxicity against human HuH7 cells assessed as reduction in cell viability; assay type: cell-based
[9] = target: Nonstructural polyprotein (Norovirus Hu/GI/10360/2010/VNM) (UniProt I1U3K2); test: as §2; details: Norovirus GI.1
Sequence of Nonstructural polyprotein (Norovirus Hu/GI/10360/2010/VNM) (I1U3K2 as listed by the source): as the sequence (I1U3K2 whole entry) above

[10] = target: T1, Protease (Norovirus Hu/GII.4-2002/WeertE022/2002/NL); test: Inhibition of Norovirus prototypic GII.4 3CL protease using HiLyte Fluor 488-labelled DFELQGPK as substrate incubated for 90 mins measured every mins for 20 mins by FRET assay relative to control; details: Norovirus GII.4
[11] = system: Norovirus; test: Antiviral activity against Norovirus prototypic GI.1 infected in human HG23 cells assessed as inhibition of viral RNA replication at 10 uM after 4 days by RT-qPCR method relative to control; assay type: functional, Norovirus GI.1; details: HG23, 96 h

Compound | IC90 [1] [µM] | pIC50 [2] | pIC50 [3] | EC90 [4] [µM] | pEC50 [4] | CC50 [5] [µM] | CC50 [6] [µM] | CC50 [7] [µM] | CC50 [8] [µM] | IC90 [9] [µM] | inhibition [10] [%] | EC50 [4] | inhibition at 10 µM [11] [%]
CC(C)C[C@H](NC(=O)[C@H](Cc1cccc2ccccc12)NC(=O)OCc1ccccc1)C(=O)NC(C[C@@H]1CCNC1=O)C1OC1S(C)(=O)=O (some centres not stated) | > 100 | 4.52 | < 5.00 | > 20 | 5.36 | > 100 | 63.9 | > 100 |  |  |  |  | 
CC(C)C[C@H](NC(=O)[C@H](Cc1cccc2ccccc12)NC(=O)OCc1ccccc1)C(=O)NC(C[C@@H]1CCNC1=O)C1CO1 (some centres not stated) |  | < 4.00 | < 4.00 |  | < 5.00 | 15.7 | 14 | 30.4 |  |  |  |  | 
CC(C)C[C@H](NC(=O)[C@H](Cc1cccc2ccccc12)NC(=O)OCc1ccccc1)C(=O)N[C@H](CS)C[C@@H]1CCNC1=O |  | < 5.00 | < 5.00 |  | < 5.00 | > 100 | > 100 | > 100 | 93.5 |  |  |  | 
CC(C)C[C@H](NC(=O)[C@H](Cc1cccc2ccccc12)NC(=O)OCc1ccccc1)C(=O)N[C@@H](C[C@@H]1CCCNC1=O)C(O)S(=O)(=O)O (some centres not stated) | 14 | 5.58 | 6.18 | 2.45 | 6.41 | 43.8 | 18.3 | > 100 | 11.2 | 2.24 |  |  | 
CC(C)C[C@H](NC(=O)[C@H](Cc1cccc2ccccc12)NC(=O)OCc1ccccc1)C(=O)N[C@H](CO)CNC(=O)N1CCC1 |  | < 4.00 | < 4.00 |  | < 5.00 | 21.2 | 2.2 | > 100 | 33 |  | 4 |  | 
CC(C)C[C@H](NC(=O)[C@H](Cc1cccc2ccccc12)NC(=O)OCc1ccccc1)C(=O)NC(/C=C/C=O)C[C@@H]1CCNC1=O (some centres not stated) |  | < 4.00 | < 5.00 | > 10 | 5.33 | 3.9 | 1.9 | 77.7 |  |  |  |  | 
CC(C)C[C@H](NC(=O)[C@H](Cc1cccc2ccccc12)NC(=O)OCc1ccccc1)C(=O)N[C@H](C=O)C[C@@H]1CCCNC1=O | 1.19 | 6.82 | 7.10 | 0.92 | 6.38 | 23.6 | 31.6 | 19.8 | 25.7 | 0.155 |  |  | 
CC(C)C[C@H](NC(=O)[C@H](Cc1cccc2ccccc12)NC(=O)OCc1ccccc1)C(=O)N[C@H](CO)CCC(=O)N1CCC1 | 5.54 | 6.30 | < 6.00 | 17.3 | 5.21 | 18.4 | 2.2 | 8.6 |  |  |  |  | 
CC(C)C[C@H](NC(=O)[C@H](Cc1cccc2ccccc12)NC(=O)OCc1ccccc1)C(=O)N[C@@H](C[C@@H]1CCCNC1=O)C(=O)C(F)(F)F | 14 | 5.58 | 6.18 | 2.45 | 6.41 | 43.8 | 18.3 | > 100 | 11.2 | 2.24 |  |  | 
CC(C)C[C@H](NC(=O)[C@H](Cc1cccc2ccccc12)NC(=O)OCc1ccccc1)C(=O)N[C@H](CCl)C[C@@H]1CCCNC1=O |  | < 4.00 |  |  | < 5.00 | 75 | 26.6 | 51.7 |  |  |  |  | 
CC(C)C[C@H](NC(=O)[C@H](Cc1cccc2ccccc12)NC(=O)OCc1ccccc1)C(=O)N[C@H](C=O)C[C@@H]1CCNC1=O | 0.205 | 7.22 | 7.49 | 8.36 | 5.95 | 28.4 | 39.5 | > 100 | > 10 | 0.248 |  |  | 
CC(C)C[C@H](NC(=O)[C@H](Cc1cccc2ccccc12)NC(=O)OCc1ccccc1)C(=O)N[C@H](/C=C(\C#N)C(N)=O)C[C@@H]1CCCNC1=O | 3.6 | 5.93 | 6.23 | 7.82 | 6.12 | 45.4 | 9.1 | > 100 | 8.4 | 1.7 |  |  | 
CC(C)C[C@H](NC(=O)[C@H](Cc1cccc2ccccc12)NC(=O)OCc1ccccc1)C(=O)N[C@H](CO)Cn1ccnn1 |  | < 5.00 | < 6.00 |  |  | 1.9 | 0.3 | 3.2 | 2.7 |  |  | Nd(Toxic) | 99
